Laboratory results from patent EP0471612B1, “New steroids having an amide substituted group in the 11-beta position, their preparation, their use as medicines and pharmaceutical composition thereof” (ROUSSEL UCLAF, priority 1990, dated 1992).
Where two headings read alike, the source gives them in different places.

Experiments:
[1] = target: T1, récepteur estrogène de l'utérus de souris (Mus musculus, UniProt P19785); assay: Relative binding affinity (ARL) for the estrogen receptor, mouse uterus cytosol, displacement of tritiated estradiol; details: ARL = 100 (CH)/(CX), estradiol = 100, head prints 0°C; for Récepteurs Oestrogène Temps d'incubation à 0°C 2H (affinité relative de liaison, ARL): incubation 2H; for Récepteurs Oestrogène Temps d'incubation à 0°C 5H (affinité relative de liaison, ARL): incubation 5H (second time)
T1 construct: les utérus sont prélevés puis homogénéisés a 0°C; from tissue; host or cells: uterus of immature female mice (18-21 days), cytosol (105 000 g supernatant)
T1 sequence (P19785 1-599): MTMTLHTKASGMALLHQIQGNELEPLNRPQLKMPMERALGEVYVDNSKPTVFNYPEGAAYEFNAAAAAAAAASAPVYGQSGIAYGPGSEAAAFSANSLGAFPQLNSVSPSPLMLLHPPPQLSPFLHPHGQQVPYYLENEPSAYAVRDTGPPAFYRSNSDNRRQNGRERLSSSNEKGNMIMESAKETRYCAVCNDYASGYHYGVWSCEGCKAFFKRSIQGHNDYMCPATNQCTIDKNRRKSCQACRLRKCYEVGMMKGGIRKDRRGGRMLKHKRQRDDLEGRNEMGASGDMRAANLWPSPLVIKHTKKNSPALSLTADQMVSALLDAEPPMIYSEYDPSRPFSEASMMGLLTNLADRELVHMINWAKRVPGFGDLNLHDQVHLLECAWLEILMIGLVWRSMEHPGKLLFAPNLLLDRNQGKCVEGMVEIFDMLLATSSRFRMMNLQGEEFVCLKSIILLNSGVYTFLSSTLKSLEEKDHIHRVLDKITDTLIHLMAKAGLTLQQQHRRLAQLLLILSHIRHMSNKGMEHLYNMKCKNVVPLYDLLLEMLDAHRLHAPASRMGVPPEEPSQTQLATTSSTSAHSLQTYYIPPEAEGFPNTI
Procedure: Des souris femelles impubères âgées de 18 a 21 jours sont sacrifiées, les utérus sont prélevés puis homogénéisés a 0°C à l'aide d'un Potter teflon-verre dans une solution tamponnée TS (Tris 10 mM, saccharose 0,25 M, HCl pH 7,4 (1 g de tissu pour 25 ml de TS). L'homogénat est ensuite ultracentrifugé (105 000 g x 90 mn) à 0°C. Des aliquotes du surnageant ainsi obtenu, sont incubées a 0°C ou a 25°C pendant un temps (t) avec une concentration constante (T) d'estradiol tritié en présence de concentrations croissantes (0 - 1000.10^-9 M) soit d'estradiol froid, soit du produit froid a tester. La concentration d'estradiol tritié lié (B) est ensuite mesurée dans chaque incubat par la technique d'adsorption au charbon-dextran.
Le calcul de l'affinité relative de liaison (ARL) est identique pour tous les récepteurs.
On trace les 2 courbes suivantes : le pourcentage de l'hormone tritiée liée (B)/(T) [formula] en fonction du logarithme de la concentration de l'hormone de référence froide et (B)/(T) [formula] en fonction du logarithme de la concentration du produit froid testé.
On détermine la droite d'équation I50 = ((B)/(T)max +(B)/(T)min)/2. [formula] (B)/(T) [formula] max = Pourcentage de l'hormone tritiée liée pour une incubation de cette hormone tritiée à la concentration (T). (B)/(T) [formula] min = Pourcentage de l'hormone tritiée liée pour une incubation de cette hormone tritiée à la concentration (T) en présence d'un grand excès d'hormone froide (2500.10^-9M).
Les intersections de la droit I50 et des courbes permettent d'évaluer les concentrations de l'hormone de référence froide (CH) et du produit froid testé (CX) qui inhibent de 50 % la liaison de l'hormone tritiée sur le récepteur.
L'affinité relative de liaison (ARL) du produit testé est déterminée par l'équation ARL = 100((CH))/((CX)). [formula]

[2] = test system: cellules tumorales mammaires MCF-7; assay: Anti-proliferative activity on growth of MCF-7 mammary tumour cells (DNA assay with DABA); assay type: cell-based; details: Homo sapiens, MCF7, 144 h, read-out: CI50 (concentration qui inhibe de 50 % la croissance des cellules MCF7)
Procedure: Les lignées MCF-7 sont maintenues en culture en milieu SVF(1) à 37°C en atmosphère humide contenant 5 % CO2. Les cellules à subconfluence sont récoltées par trypsination (trypsine 0,05 %, EDTA 0,02 %) puis rincées par centrifugation douce. Un échantillon des cellules en suspension est compté sur cellule de Malassez.
Les cellules resuspendues dans le milieu SVF sont ensemencées à raison de 30.000 cellules par puits dans des plaques multipuits (24 puits de 2,5 cm^2). Vingt quatre heures après l'ensemencement (JO), le produit à tester est ajouté au milieu en solution éthanolique (concentration finale en éthanol : 0,1 %), à la concentration de 10^-12 à 10^-6M, les puits contrôles recevant la même concentration en éthanol. Les milieux sont renouvelés toutes les 48 heures. En fin d'expérience (J6), le milieu est aspiré et les cellules sont immédiatement fixées par 150 microlitres de méthanol afin de doser l'ADN.
L'activité anti-proliférative des produits est évaluée par leur capacité à inhiber l'augmentation d'ADN.
L'ADN est dosé par une méthode fluorimétrique utilisant le DABA (Acide 3,5 diaminobenzoïque) (2) : 150 microlitres de DABA sont ajoutés dans chaque puits; les plaques sont alors incubées 45 mn à 56°C, puis 2 ml d'HCl 1N sont ajoutés. La fluorescence est mesurée à l'aide d'un fluorimètre (longueur d'onde excitatrice : 408 nm, longueur d'onde d'émission : 510 nm).
La quantité d'ADN par puits est évaluée par rapport à une gamme étalon obtenue en traitant dans les mêmes conditions un standard d'ADN de thymus de veau.
La concentration en nm qui inhibe de 50 % la croissance des cellules MCF7 (CI50) a été déterminée de la manière indiquée ci-dessus : […]

[3] = MCF-7, product 10^-12 to 10^-6M, 6 days (J6), DNA measured

C#C[C@]1(O)CC[C@H]2[C@@H]3CCc4cc(O)ccc4[C@H]3[C@@H](CCCCCCCCOCC(=O)N(C)C(C)C)C[C@@]21C [Exemple 14, 2-((8-(3,17béta-dihydroxy19-nor-17alpha-pregna-1,3,5(10)-trien-20-yn-11béta-yl)octyl)oxy)-N-méthyl-N-(1-méthyléthyl)-acétamide]
Récepteurs Oestrogène Temps d'incubation à 0°C 2H (affinité relative de liaison, ARL) [1]: 2,8
Récepteurs Oestrogène Temps d'incubation à 0°C 5H (affinité relative de liaison, ARL) [1]: 47
Récepteurs Oestrogène Temps d'incubation à 0°C 5H (affinité relative de liaison, ARL) ([1]; listed as exemple 14): affinité marquée
IC50 [2, 3]: 0.015 nM

CCCCN(C)C(=O)COCCCCCCOc1ccc([C@H]2C[C@]3(C)[C@@H](O)CC[C@H]3[C@@H]3CCc4cc(O)ccc4[C@H]32)cc1 [Exemple 6]
Récepteurs Oestrogène Temps d'incubation à 0°C 2H (affinité relative de liaison, ARL) [1]: 3,3
Récepteurs Oestrogène Temps d'incubation à 0°C 5H (affinité relative de liaison, ARL) [1]: 29
IC50 [2, 3]: 0.007 nM

CCCCN(C)C(=O)CSCCCCCc1ccc([C@H]2C[C@]3(C)[C@@H](O)CC[C@H]3[C@@H]3CCc4cc(O)ccc4[C@H]32)cc1 [Exemple 9, N-butyl-2-((5-(4-(3,17béta-dihydroxy-estra-1,3,5(10)-trien-11béta-yl)phényl)pentyl)thio)-N-méthyl-acétamide]
Récepteurs Oestrogène Temps d'incubation à 0°C 5H (affinité relative de liaison, ARL) [1]: 11,7
IC50 [2, 3]: 0.009 nM

CCCCN(C)C(=S)COCCCCCOc1ccc([C@H]2C[C@]3(C)[C@@H](O)CC[C@H]3[C@@H]3CCc4cc(O)ccc4[C@H]32)cc1 [Exemple 1]
Récepteurs Oestrogène Temps d'incubation à 0°C 5H (affinité relative de liaison, ARL) [1]: 20
IC50 [2, 3]: 0.03 nM

CCCCN(C)C(=S)CSCCCCCOc1ccc([C@H]2C[C@]3(C)[C@@H](O)CC[C@H]3[C@@H]3CCc4cc(O)ccc4[C@H]32)cc1 [Exemple 18]
Récepteurs Oestrogène Temps d'incubation à 0°C 5H (affinité relative de liaison, ARL) [1]: 16

CN(CC(F)(F)C(F)(F)C(F)(F)F)C(=O)CCCCCCCOc1ccc([C@H]2C[C@]3(C)[C@@H](O)CC[C@H]3[C@@H]3CCc4cc(O)ccc4[C@H]32)cc1 [Exemple 5, 8-(4-(3,17béta-dihydroxy-estra-1,3,5(10)-trien-11béta-yl)phénoxy)-N-(2,2,3,3,4,4,4-heptafluorobutyl)-N-méthyl-octanamide]
Récepteurs Oestrogène Temps d'incubation à 0°C 2H (affinité relative de liaison, ARL) [1]: 0
Récepteurs Oestrogène Temps d'incubation à 0°C 5H (affinité relative de liaison, ARL) [1]: 23
IC50 [2]: 0.02 nM

CCCCN(C)C(=S)CCCCCCCOc1ccc([C@H]2C[C@]3(C)[C@@H](O)CC[C@H]3[C@@H]3CCc4cc(O)ccc4[C@H]32)cc1 [Exemple 2, N-butyl-8-(4-(3,17béta-dihydroxy-estra-1,3,5(10)-trien-11béta-yl)phénoxy)-N-méthyl-octanethioamide]
Récepteurs Oestrogène Temps d'incubation à 0°C 5H (affinité relative de liaison, ARL) [1]: 16
IC50 [2, 3]: 0.035 nM
